Here are results for eight compounds from ChEMBL document CHEMBL1212731, “Nonclonal emergence of colistin-resistant Klebsiella pneumoniae isolates from blood samples in South Korea” (2010).

Converted amounts (≈) assume the structure as drawn.

Holding throughout (type): functional
In assay [1] the test system is Klebsiella pneumoniae. Put plainly: Antimicrobial activity against Klebsiella pneumoniae isolated from bacteremia patient assessed as percentage of resistant isolates by broth microdilution method. (In broth dilution the organism is exposed to a series of concentrations in liquid medium.)
The subject of assay [2] is Klebsiella pneumoniae. Put plainly: Antimicrobial activity against colistin-susceptible Klebsiella pneumoniae isolated from bacteremia patient assessed as percentage of resistant isolates by broth microdilution method.
Assay [3] relates to Klebsiella pneumoniae. Put plainly: Antimicrobial activity against colistin-resistant Klebsiella pneumoniae isolated from bacteremia patient assessed as percentage of resistant isolates by broth microdilution method.
The subject of assay [4] is Klebsiella pneumoniae. Put plainly: Antimicrobial activity against colistin-resistant Klebsiella pneumoniae isolated from bacteremia patient by broth microdilution method.

Consider `CC1(C)S[C@@H]2[C@H](NC(=O)[C@H](N)c3ccccc3)C(=O)N2[C@H]1C(=O)O` [AMPICILLIN], for which the Activity in the assay on Klebsiella pneumoniae [1] is listed as 91.4%; in the assay on Klebsiella pneumoniae [2], 92.2%; in the assay on Klebsiella pneumoniae [3] it was 80%. The MIC50 (commonly an inhibitory concentration at the 50% level, which refers to growth in some studies and to a panel of isolates in others) in the assay with Klebsiella pneumoniae [4] turned out to be 64 µg/mL (≈ 183 µM). The MIC90 – broadly, the lowest concentration that inhibits either 90% of growth or 90% of the strains tested, depending on the study – with Klebsiella pneumoniae [4] was greater than 64 µg/mL.

Regarding `C[C@H]1[C@H](NC(=O)/C(=N\OC(C)(C)C(=O)O)c2csc(N)n2)C(=O)N1S(=O)(=O)O` [AZTREONAM], the Activity with Klebsiella pneumoniae [1] amounted to 16.7%; in the assay with Klebsiella pneumoniae [2], 17.5%; in the assay with Klebsiella pneumoniae [3], 6.7%. For the same compound, the MIC50 with Klebsiella pneumoniae [4] was no more than 0.06 µg/mL. Further, the MIC90 against Klebsiella pneumoniae [4] was greater than 64 µg/mL.

As for `CO/N=C(\C(=O)N[C@@H]1C(=O)N2C(C(=O)O)=C(COC(C)=O)CS[C@H]12)c1csc(N)n1` [CEFOTAXIME], the Activity in the assay on Klebsiella pneumoniae [1] is reported as 14.5%; in the assay on Klebsiella pneumoniae [2] it was 15.1%; with Klebsiella pneumoniae [3] it was 6.7%. Further, the MIC50 against Klebsiella pneumoniae [4] is no more than 0.12 µg/mL. The MIC90 against Klebsiella pneumoniae [4] is 128 µg/mL (≈ 281 µM).

With `CC(C)(O/N=C(\C(=O)N[C@@H]1C(=O)N2C(C(=O)[O-])=C(C[n+]3ccccc3)CS[C@H]12)c1csc(N)n1)C(=O)O` [CEFTAZIDIME], the Activity is 17.7% in the assay with Klebsiella pneumoniae [1], 18.5% with Klebsiella pneumoniae [2] and 6.7% in the assay on Klebsiella pneumoniae [3]. For the same compound, the MIC50 against Klebsiella pneumoniae [4] is 0.25 µg/mL (≈ 0.457 µM). Also, the MIC90 against Klebsiella pneumoniae [4] was greater than 64 µg/mL.

For `O=C(O)c1cn(C2CC2)c2cc(N3CCNCC3)c(F)cc2c1=O` [CIPROFLOXACIN], the figures for the Activity in the assay on Klebsiella pneumoniae [1], in the assay on Klebsiella pneumoniae [2] and in the assay on Klebsiella pneumoniae [3] were 17.7%, 17.5% and 20%, respectively. In the assay on Klebsiella pneumoniae [4], this compound showed an MIC50 of no more than 0.06 µg/mL. In the assay on Klebsiella pneumoniae [4], the MIC90 came to 64 µg/mL (≈ 193 µM).

As for `C[C@@H](O)[C@H]1C(=O)N2C(C(=O)O)=C(SCCNC=N)C[C@H]12` [IMIPENEM ANHYDROUS], the Activity in the assay on Klebsiella pneumoniae [1] is given as 0.5%. Also, the Activity with Klebsiella pneumoniae [2] turned out to be 0.5%. In the assay on Klebsiella pneumoniae [4], this compound returned an MIC50 of 0.25 µg/mL (≈ 0.835 µM) and an MIC90 of 1 µg/mL (≈ 3.34 µM).

For COLISTIN, the Activity in the assay with Klebsiella pneumoniae [1] was determined as 6.8%; in the assay with Klebsiella pneumoniae [3] it was 100%. The compound also showed an MIC50 against Klebsiella pneumoniae [4] of 1 µg/mL. Further, in the assay with Klebsiella pneumoniae [4], the MIC90 was found to be 4 µg/mL.

For the compound GENTAMICIN, the Activity turned out to be 16.3% in the assay with Klebsiella pneumoniae [1], 17% in the assay with Klebsiella pneumoniae [2] and 6.7% with Klebsiella pneumoniae [3]. In the assay with Klebsiella pneumoniae [4], this compound had an MIC50 of 0.5 µg/mL. Moreover, the MIC90 in the assay with Klebsiella pneumoniae [4] was greater than 64 µg/mL.
